Data as given in PubChem BioAssay AID248 (DTP/NCI, 2004).
Values joined by “and” are separate entries in the source; they are usually repeats but may differ in a detail not shown here. Identical values can stand only once. Toxic doses and inconclusive results are not listed. Rule as the data show it: active = T/C of 150% or more; inactive = T/C below 125%.

System: L1210 leukemia ip in BDF1 mice, survival T/C
Experiment: NCI In Vivo Anticancer Drug Screen. Data for tumor model L1210 Leukemia (intraperitoneal) in B6D2F1 (BDF1) mice
Conditions: endpoint: mean survival time, higher = longer survival
Outline: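 Transplanted-tumor mice were given test agent; controls received vehicle only. Survival readings from the two groups were divided (treated over control).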

[1] = dose: 50.0 mg/kg/injection, schedule: Q01DX001 (ip), vehicle: saline
[2] = dose: 100.0 mg/kg/injection, schedule: Q01DX001 (ip), vehicle: saline
[3] = dose: 200.0 mg/kg/injection, schedule: Q01DX001 (ip), vehicle: saline
[4] = dose: 100.0 mg/kg/injection, schedule: Q01DX009 (ip), vehicle: saline
[5] = dose: 200.0 mg/kg/injection, schedule: Q01DX009 (ip), vehicle: saline
[6] = dose: 100.0 mg/kg/injection, schedule: Q01DX009 (ip), vehicle: saline with Tween-80
[7] = dose: 200.0 mg/kg/injection, schedule: Q01DX009 (ip), vehicle: saline with Tween-80
[8] = dose: 100.0 mg/kg/injection, schedule: Q04DX003 (ip), vehicle: saline
[9] = dose: 200.0 mg/kg/injection, schedule: Q04DX003 (ip), vehicle: saline
[10] = dose: 100.0 mg/kg/injection, schedule: Q01DX001 (ip), vehicle: saline sonified
[11] = dose: 200.0 mg/kg/injection, schedule: Q01DX001 (ip), vehicle: saline sonified
[12] = dose: 400.0 mg/kg/injection, schedule: Q01DX001 (ip), vehicle: saline sonified
[13] = dose: 400.0 mg/kg/injection, schedule: Q04DX003 (ip), vehicle: saline
[14] = dose: 400.0 mg/kg/injection, schedule: Q01DX001 (ip), vehicle: saline

Measured: T/C

C[N+]1=C(/C=C/c2ccc(O)c3ncccc23)C(C)(C)c2ccccc21
inactive: dose: 7.5 mg/kg/injection, schedule: Q01DX009 (ip), vehicle: saline 93 % of control | dose: 12.5 mg/kg/injection, schedule: Q01DX001 (ip), vehicle: saline 106 % of control | dose: 15.0 mg/kg/injection, schedule: Q01DX009 (ip), vehicle: saline 109 % of control | dose: 25.0 mg/kg/injection, schedule: Q01DX001 (ip), vehicle: saline 101 % of control | dose: 30.0 mg/kg/injection, schedule: Q01DX009 (ip), vehicle: saline 104 % of control | [1] 113 % of control | dose: 60.0 mg/kg/injection, schedule: Q01DX009 (ip), vehicle: saline 101 % of control | [2] 92 % of control and 117 % of control | [3] 112 % of control

O=C(O)/C=C/C(=O)NCCC(=O)O
inactive: [4] 114 % of control | [5] 115 % of control | dose: 400.0 mg/kg/injection, schedule: Q01DX009 (ip), vehicle: saline 109 % of control

COC(=O)C1Cc2ccccc2/C1=N\O (configuration not stated)
inactive: dose: 50.0 mg/kg/injection, schedule: Q01DX009 (ip), vehicle: saline with Tween-80 94 % of control | [6] 94 % of control | [7] 94 % of control

CC(C)CCCCCCCCCCCCC(=O)NCC(=O)NC1C(O)C(O)C(Nc2ncnc3nc[nH]c23)OC1C(O)CO (configuration not stated)
inactive: dose: 0.3 mg/kg/injection, schedule: Q## X000 (ip), vehicle: carboxymethylcellulose (CMC) 100 % of control | dose: 0.4 mg/kg/injection, schedule: Q01DX Z (ip), vehicle: carboxymethylcellulose (CMC) 107 % of control | dose: 0.44 mg/kg/injection, schedule: Q## X000 (ip), vehicle: carboxymethylcellulose (CMC) 107 % of control | dose: 0.6 mg/kg/injection, schedule: Q01DX Z (ip), vehicle: carboxymethylcellulose (CMC) 104 % of control | dose: 0.66 mg/kg/injection, schedule: Q## X000 (ip), vehicle: carboxymethylcellulose (CMC) 98 % of control | dose: 0.9 mg/kg/injection, schedule: Q01DX Z (ip), vehicle: carboxymethylcellulose (CMC) 103 % of control | dose: 1.0 mg/kg/injection, schedule: Q01DX001 (ip), vehicle: saline 101 % of control | dose: 1.0 mg/kg/injection, schedule: Q## X000 (ip), vehicle: carboxymethylcellulose (CMC) 110 % of control | dose: 1.35 mg/kg/injection, schedule: Q01DX Z (ip), vehicle: carboxymethylcellulose (CMC) 107 % of control | dose: 2.0 mg/kg/injection, schedule: Q01DX001 (ip), vehicle: saline 98 % of control | dose: 4.0 mg/kg/injection, schedule: Q01DX001 (ip), vehicle: saline 98 % of control | dose: 8.0 mg/kg/injection, schedule: Q01DX001 (ip), vehicle: saline 101 % of control | dose: 12.0 mg/kg/injection, schedule: Q01DX001 (ip), vehicle: saline 105 % of control | dose: 18.0 mg/kg/injection, schedule: Q01DX001 (ip), vehicle: saline 112 % of control | dose: 27.0 mg/kg/injection, schedule: Q01DX001 (ip), vehicle: saline 96 % of control

CC(=O)NC1(C#N)c2ccccc2-c2ccccc21
inactive: dose: 50.0 mg/kg/injection, schedule: Q01DX001 (ip), vehicle: carboxymethylcellulose (CMC) 104 % of control | dose: 100.0 mg/kg/injection, schedule: Q01DX001 (ip), vehicle: carboxymethylcellulose (CMC) 104 % of control | dose: 200.0 mg/kg/injection, schedule: Q01DX001 (ip), vehicle: carboxymethylcellulose (CMC) 102 % of control | dose: 400.0 mg/kg/injection, schedule: Q01DX001 (ip), vehicle: carboxymethylcellulose (CMC) 104 % of control

C=C(C)COc1c(C)cc(C)cc1[N+](=O)[O-]
inactive: dose: 100.0 mg/kg/injection, schedule: Q04DX003 (ip), vehicle: saline with Tween-80 96 % of control | dose: 200.0 mg/kg/injection, schedule: Q04DX003 (ip), vehicle: saline with Tween-80 100 % of control | dose: 400.0 mg/kg/injection, schedule: Q04DX003 (ip), vehicle: saline with Tween-80 97 % of control

CC1NCCOC1c1ccccc1 (configuration not stated)
inactive: dose: 12.5 mg/kg/injection, schedule: Q01DX009 (ip), vehicle: saline 93 % of control | dose: 25.0 mg/kg/injection, schedule: Q01DX009 (ip), vehicle: saline 108 % of control and 92 % of control | dose: 25.0 mg/kg/injection, schedule: Q04DX003 (ip), vehicle: saline 114 % of control | dose: 50.0 mg/kg/injection, schedule: Q01DX009 (ip), vehicle: saline 100 % of control and 108 % of control | dose: 50.0 mg/kg/injection, schedule: Q04DX003 (ip), vehicle: saline 103 % of control | [4] 106 % of control | [8] 100 % of control | [9] 88 % of control

NC(Cc1ccc([N+](=O)[O-])cc1)C(=O)O (configuration not stated)
inactive: [10] 116 % of control | [6] 100 % of control and 98 % of control | [8] 111 % of control | [11] 103 % of control | [7] 95 % of control | [9] 101 % of control | [12] 103 % of control | dose: 400.0 mg/kg/injection, schedule: Q01DX009 (ip), vehicle: saline with Tween-80 100 % of control and 92 % of control | [13] 90 % of control

CCCCC(=O)N/N=C/c1ccc(Br)cc1
inactive: [2] 100 % of control | [3] 97 % of control | [14] 102 % of control

CCOC(=O)/C=C/SCCCC(=O)O
inactive: [6] 96 % of control | [7] 88 % of control

O=C(n1ccnc1)C(F)(F)F
inactive: [10] 105 % of control | [8] 109 % of control | [11] 108 % of control | [9] 91 % of control | [12] 101 % of control | [13] 97 % of control

CN1C2CCC1CC(=C(C#N)C(N)=O)C2
inactive: dose: 3.13 mg/kg/injection, schedule: Q01DX009 (ip), vehicle: Klucel (hydroxypropylcellulose) (HPC) 100 % of control | dose: 3.13 mg/kg/injection, schedule: Q04DX003 (ip), vehicle: Klucel (hydroxypropylcellulose) (HPC) 107 % of control | dose: 6.25 mg/kg/injection, schedule: Q01DX009 (ip), vehicle: Klucel (hydroxypropylcellulose) (HPC) 98 % of control | dose: 6.25 mg/kg/injection, schedule: Q04DX003 (ip), vehicle: Klucel (hydroxypropylcellulose) (HPC) 102 % of control | dose: 12.5 mg/kg/injection, schedule: Q04DX003 (ip), vehicle: Klucel (hydroxypropylcellulose) (HPC) 104 % of control and 88 % of control

CCOC(=O)CC(O)(COC)c1ccccc1 (configuration not stated)
inactive: [1] 114 % of control | [2] 100 % of control | [3] 109 % of control | [14] 97 % of control

Cc1cccc(C(=O)OCc2ccccc2CN2CCCCC2)c1
inactive: dose: 25.0 mg/kg/injection, schedule: Q04DX002 (ip), vehicle: Klucel (hydroxypropylcellulose) (HPC) 105 % of control | dose: 50.0 mg/kg/injection, schedule: Q04DX002 (ip), vehicle: Klucel (hydroxypropylcellulose) (HPC) 105 % of control | dose: 100.0 mg/kg/injection, schedule: Q04DX002 (ip), vehicle: Klucel (hydroxypropylcellulose) (HPC) 105 % of control

Clc1ccc(CSc2nc3ccccc3[nH]2)cc1
inactive: dose: 100.0 mg/kg/injection, schedule: Q01DX009 (ip), vehicle: Klucel (hydroxypropylcellulose) (HPC) 94 % of control | dose: 200.0 mg/kg/injection, schedule: Q01DX009 (ip), vehicle: Klucel (hydroxypropylcellulose) (HPC) 103 % of control | dose: 400.0 mg/kg/injection, schedule: Q01DX009 (ip), vehicle: Klucel (hydroxypropylcellulose) (HPC) 103 % of control

C/C=C\C#N
inactive: [4] 106 % of control | [8] 103 % of control | [5] 108 % of control | [9] 113 % of control

[Co+3].[NH-]CC(=O)O.[NH-]CC(=O)O.[NH-]CC(=O)O
inactive: dose: 200.0 mg/kg/injection, schedule: Q04DX002 (ip), vehicle: saline with Tween-80 122 % of control | dose: 400.0 mg/kg/injection, schedule: Q04DX002 (ip), vehicle: saline with Tween-80 115 % of control

CN(C)N=Nc1ccc(C(=O)N/N=C/c2ccccc2)cc1
inactive: dose: 75.0 mg/kg/injection, schedule: Q04DX003 (ip), vehicle: Klucel (hydroxypropylcellulose) (HPC) 99 % of control | dose: 150.0 mg/kg/injection, schedule: Q04DX003 (ip), vehicle: Klucel (hydroxypropylcellulose) (HPC) 97 % of control | dose: 300.0 mg/kg/injection, schedule: Q04DX003 (ip), vehicle: Klucel (hydroxypropylcellulose) (HPC) 100 % of control

CSc1nc2c(n1-c1ccccc1)C(=O)C(OS(=O)(=O)c1ccccc1)C(=O)N2 (configuration not stated)
inactive: dose: 75.0 mg/kg/injection, schedule: Q01DX001 (ip), vehicle: saline with Tween-80 95 % of control | dose: 150.0 mg/kg/injection, schedule: Q01DX001 (ip), vehicle: saline with Tween-80 98 % of control | dose: 300.0 mg/kg/injection, schedule: Q01DX001 (ip), vehicle: saline with Tween-80 98 % of control
